Experiment [1] deals with HCT 116 (colon) cells. Put plainly: Anti-cancer screen (MTT), HCT 116. Type of experiment: cell-based. The following applies: Homo sapiens, HCT-116, HCT116, 48 hours, MTT; for GI50: read-out: Cell growth inhibition HCT116 (Colon) GI50; for CC50: read-out: Cell growth inhibition HCT116 (Colon) LC50; for IC (TGI): read-out: Cell growth inhibition HCT116 (Colon) TGI. As to the method: (§1) Experimental drugs were screened for anti-cancer activity in three cell lines using five concentrations for each compound. The cell lines —HCT 116 (colon), NCIH460 (lung) and U251 (glioma) were maintained in DMEM containing 10% fetal bovine serum. 96-well microtiter plates are inoculated with cells in 100 μL of cell suspension (5×10^4 cells/mL) for 24 hours at 37° C., 5% CO2, 95% air and 100% relative humidity. A separate plate with these cell lines is also inoculated to determine cell viability before the addition of the compounds (T0).
(§2) Following 24-hours incubation, test compounds were added to the 96 well plates. Each plate contains one of the above cell lines and the following samples in triplicate: five different dilutions (0.01, 0.1, 1, 10 and 100 μM) of four test compounds, appropriate dilutions of a cytotoxic standard and growth medium (untreated) wells. Test compounds were dissolved in DMSO to prepare 20 mM stock solutions on the day of drug addition and serial dilutions were carried out in complete growth medium at 2× strength such that 100 μL added to wells gave final concentrations (0.01, 0.1, 1, 10 and 100 μM) in the well. SAHA was used as standard drug in these experiments.
(§3) For T0 measurement, 24 hours after seeding the cells, 20 μL of 3-(4,5-dimethyl-2-thiazolyl)-2,5-diphenyl-2H-tetrazolium (MTT) solution per well was added to the ‘T0’ plate and incubated for 3 hours at 37° C. in a CO2 incubator. The plate containing cells and test compounds was treated similarly after 48 hours of incubation. After 3 hours of MTT addition, well contents were aspirated carefully followed by addition of 150 μL DMSO per well. Plates were agitated to ensure dissolution of the formazan crystals in DMSO and absorbance was read at 570 nm (A570).
(§4) (Mosmann T. Rapid colorimetric assay for cellular growth and survival: application to proliferation and cytotoxicity assays. J Immunol Methods 1983; 65(1-2): 55-63; Anne Monks et al. Feasibility of high-flux anticancer drug screen using a diverse panel of cultured human tumor cell lines”. JNCI, Vol. 83, No. 11, 1991).

Experiment [2] relates to NCIH460, HCT116 and U251 cells. Put plainly: Anti-cancer screen, mean GI50 over cell lines. It counts as cell-based. The conditions noted are these: mean over cell lines; read-out: Cell growth inhibition Mean GI50. The protocol:
as §1, §2, §3, §4

Experiment [3] relates to U251 (glioma) cells. The experiment in a line: Anti-cancer screen (MTT), U251. It counts as cell-based. The conditions noted are these: Homo sapiens, U-251, U251, 48 hours, MTT; for GI50: read-out: Cell growth inhibition U251 (Glioma) GI50; for LC50 (concentration giving 50% net cell kill relative to the time-zero cell count): read-out: Cell growth inhibition U251 (Glioma) LC50; for IC (TGI): read-out: Cell growth inhibition U251 (Glioma) TGI. As to the method: as §1, §2, §3, §4

Experiment [4] concerns HDAC (Mouse Liver Extract). Put plainly: HDAC inhibition assay using Boc-Lys(Ac)-AMC substrate. It counts as biochemical. The following applies: mouse liver enzyme. As to the method: Inhibition of HDAC has been implicated to modulate transcription and to induce apoptosis or differentiation in cancer cells. The fluorometric assay provides a fast and fluorescence based method that eliminates radioactivity, extractions or chromatography, as used in traditional assays. The assay is based on two steps. First, the HDAC fluorometric substrate, which comprises an acetylated lysine side chain, is incubated with a sample containing HDAC activity (Mouse Liver Extract). Deacetylation of the substrate sensitizes the substrate, in the second step; treatment with the Trypsin stop solution produces a fluorophore that can be easily analyzed using fluorescence plate reader. Assay was done in 96-well black microplate and total volume of the assay was […]. […] The plate was pre-incubated at 37° C. for 5 minutes. […] The plate was incubated at 37° C. for 30 min. The reaction was stopped by adding 100 μL, of Trypsin stop solution and incubating at 37° C. for 15-30 min. Measuring the fluorescence at excitation wavelength of 360 nm and emission wavelength of 460 nm monitored the release of AMC. Buffer alone and substrate alone served as blank. […] (Dennis Wegener et al, Anal. Biochem, 321, 2003, 202-208).

The subject of experiment [5] is NCIH460 (lung) cells. Put plainly: Anti-cancer screen (MTT), NCIH460. It counts as cell-based. The conditions noted are these: Homo sapiens, NCI-H460, NCIH460, 48 hours, MTT; for GI50: read-out: Cell growth inhibition NCIH460 (Lung) GI50; for LC50: read-out: Cell growth inhibition NCIH460 (Lung) LC50; for IC (TGI): read-out: Cell growth inhibition NCIH460 (Lung) TGI. The protocol:
as §1, §2, §3, §4

Molecules are shown by their SMILES. pIC50: −log10 of the molar value.

On to `Nc1ccccc1NC(=O)c1ccc(CNC(=O)/C(=C/c2ccc(F)c(F)c2)c2ccc(F)cc2)cc1` [Compound 1, N-(2-Aminophenyl)-4-((3-(3,4-difluorophenyl)-2-(4-fluorophenyl)acrylamido)methyl)benzamide], for which, in experiment [1], the GI50 (as a rule, the concentration that inhibits growth by half) was determined as 2.2 µM; the CC50 was found to be 27 µM; the IC (TGI) was 4.9 µM. Further, the GI50 in experiment [2] is 2.4 µM. In experiment [3], the GI50 came out at 2.8 µM, the LC50 (concentration giving 50% net cell kill relative to the time-zero cell count) turned out to be 35 µM and the IC (TGI) was determined as 4.2 µM. Further, in experiment [4], the “HDAC inhibition % (1 μM)” value was 1.2% and the “HDAC inhibition % (10 μM)” value turned out to be 27.8%. Besides, in experiment [5], the GI50 was determined as 2.3 µM; the LC50 (in general, the concentration that kills 50% of the test population) was 52 µM; the IC (TGI) stood at 5.4 µM.

As to `COc1ccc(/C=C(/C(=O)NCc2ccc(C(=O)Nc3ccccc3N)cc2)c2ccccc2)cc1` [Compound 2, N-(2-Aminophenyl)-4-((3-(4-methoxyphenyl)-2-(phenyl)acrylamido)methyl)benzamide], in experiment [1], the GI50 came to 4.4 µM, the CC50 is over 100 µM and the IC (TGI) came out at 9.4 µM. Besides, in experiment [2], the GI50 is 5 µM. In addition, in experiment [3], the GI50 worked out at 7.6 µM, the LC50 (concentration giving 50% net cell kill relative to the time-zero cell count) is over 100 µM and the IC (TGI) was 39 µM. Further, in experiment [4], the “HDAC inhibition % (1 μM)” value is on record as 2.3% and the “HDAC inhibition % (10 μM)” value turned out to be 6.8%. Further, in experiment [5], the GI50 is 2.9 µM, the LC50 is over 100 µM and the IC (TGI) is 8.2 µM.

In the case of `Nc1ccccc1NC(=O)c1ccc(CNC(=O)/C(=C/c2ccccc2F)c2ccc(Cl)cc2)cc1` [Compound 3, N-(2-Aminophenyl)-4-((3-(2-fluorophenyl)-2-(4-chlorophenyl)acrylamido)methyl)benzamide], in experiment [1], the GI50 is 3.2 µM, the CC50 stood at 100 µM and the IC (TGI) stood at 10 µM. The GI50 in experiment [2] amounted to 6.6 µM. Also, in experiment [3], the GI50 was determined as 16 µM, the LC50 (concentration giving 50% net cell kill relative to the time-zero cell count) is 85 µM and the IC (TGI) is 39 µM. Besides, in experiment [4], the “HDAC inhibition % (1 μM)” value stood at 5.1% and the “HDAC inhibition % (10 μM)” value came out at 16.4%. Moreover, in experiment [5], the GI50 is 0.6 µM, the LC50 is over 100 µM and the IC (TGI) is 52 µM.

Consider `Nc1ccccc1NC(=O)c1ccc(CNC(=O)/C(=C/c2ccc(F)c(C(F)(F)F)c2)c2ccc(C(F)(F)F)cc2)cc1` [Compound 4, N-(2-Aminophenyl)-4-((3-(4-fluoro-3-trifluoromethylphenyl)-2-(4-trifluoromethylphenyl)acrylamido)methyl)benzamide], for which, in experiment [1], the GI50 is 4.1 µM, the CC50 was 77 µM and the IC (TGI) amounted to 26 µM. Also, in experiment [2], the GI50 was determined as 5.3 µM. In experiment [3], the GI50 is 11.5 µM, the LC50 (concentration giving 50% net cell kill relative to the time-zero cell count) was over 100 µM and the IC (TGI) was determined as 41 µM. Further, in experiment [4], the “HDAC inhibition % (1 μM)” value stood at 0.0% and the “HDAC inhibition % (10 μM)” value worked out at 14.2%. In experiment [5], the GI50 turned out to be 0.2 µM, the LC50 was 58.5 µM and the IC (TGI) was determined as 3.8 µM.

With `CSc1ccc(/C=C(/C(=O)NCc2ccc(C(=O)Nc3ccccc3N)cc2)c2ccc(F)cc2)cc1` [Compound 6, N-(2-Aminophenyl)-4-((3-(4-methylthiophenyl)-2-(4-fluorophenyl)acrylamido)methyl)benzamide], in experiment [1], the GI50 was 4.8 µM, the CC50 stood at 95.8 µM and the IC (TGI) stood at 46 µM. In addition, the GI50 in experiment [2] is 4.5 µM. In experiment [3], the GI50 was under 0.01 µM, the LC50 (concentration giving 50% net cell kill relative to the time-zero cell count) is 83.2 µM and the IC (TGI) was 22 µM. Moreover, in experiment [4], the “HDAC inhibition % (1 μM)” value was determined as 4.2% and the “HDAC inhibition % (10 μM)” value is 25.8%. Further, in experiment [5], the GI50 amounted to 8.8 µM, the LC50 was 90 µM and the IC (TGI) came to 47 µM.

With `Nc1ccccc1NC(=O)c1ccc(CNC(=O)/C(=C/c2ccc([N+](=O)[O-])s2)c2ccc(F)cc2)cc1` [Compound 7, N-(2-Aminophenyl)-4-((3-(5-nitrothiophen-2-yl)-2-(4-fluorophenyl)acrylamido)methyl)benzamide], in experiment [1], the GI50 worked out at 4.5 µM, the CC50 was determined as 71.2 µM and the IC (TGI) came to 9.6 µM. Moreover, in experiment [2], the GI50 was found to be 9.2 µM. In experiment [3], the GI50 was 17 µM, the LC50 (concentration giving 50% net cell kill relative to the time-zero cell count) came out at 76 µM and the IC (TGI) amounted to 34.5 µM. For the same compound, in experiment [4], the “HDAC inhibition % (1 μM)” value stood at 12.4% and the “HDAC inhibition % (10 μM)” value came out at 19.4%. In experiment [5], the GI50 came out at 6.2 µM, the LC50 stood at 73.8 µM and the IC (TGI) was 26.5 µM.

With `Nc1ccccc1NC(=O)c1ccc(CNC(=O)/C(=C/c2ccnc3ccccc23)c2ccc(F)cc2)cc1` [Compound 22, N-(2-Aminophenyl)-4-((3-(quinolin-4-yl)-2-(4-fluorophenyl)acrylamido)methyl)benzamide], in experiment [1], the 50% growth inhibitory concentration (GI50) was 7.9 µM, the CC50 is over 100 µM and the IC (TGI) amounted to 70 µM. In addition, in experiment [2], the GI50 amounted to 7.8 µM. For the same compound, in experiment [4], the “HDAC inhibition % (1 μM)” value was 32.9%; the “HDAC inhibition % (10 μM)” value is reported as 56.1%; the pIC50 – broadly, −log10 of the IC50, conventionally taken in molar units – was 5.49. In experiment [5], the GI50 was 7.6 µM, the LC50 was over 100 µM and the IC (TGI) is 80 µM.

In the case of `COc1ccc(/C(=C\c2ccc(OC)c(OC)c2)C(=O)NCc2ccc(C(=O)Nc3ccccc3N)cc2)cc1` [Compound 27, N-(2-Aminophenyl)-4-((3-(3,4-dimethoxyphenyl)-2-(4-methoxyphenyl)acrylamido)methyl)benzamide], in experiment [1], the GI50 was found to be 0.4 µM, the CC50 is over 100 µM and the IC (TGI) is over 100 µM. The GI50 in experiment [2] was determined as 1.2 µM. Also, in experiment [4], the “HDAC inhibition % (1 μM)” value amounted to 37.1% and the “HDAC inhibition % (10 μM)” value came out at 47.2%. In experiment [5], the GI50 turned out to be 2.1 µM and the IC (TGI) was over 100 µM.

For `CSc1ccc(/C=C(/C(=O)NCc2ccc(/C=C/C(=O)NO)cc2)c2ccc(F)cc2)cc1` [Compound 76, (1E)-N-(4-(3-(Hydroxyamino)-3-oxoprop-1-enyl)benzyl)-2-(4-fluorophenyl)-3-(4-methylthiophenyl)acrylamide], in experiment [1], the GI50 was 5 µM, the CC50 is over 100 µM and the IC (TGI) is 60 µM. Besides, in experiment [2], the GI50 is 4.6 µM. In experiment [4], the “HDAC inhibition % (1 μM)” value worked out at 42.6%, the “HDAC inhibition % (10 μM)” value is listed as 89.8% and the pIC50 is 7.22. In addition, in experiment [5], the 50% growth inhibitory concentration (GI50) amounted to 4.2 µM, the LC50 was over 100 µM and the IC (TGI) was 42.5 µM.

These data come from patent publication US8476255B2, “Histone deacetylase inhibitors” (Orchid Chemicals & Pharmaceuticals Limited, priority 2007, dated 2013).
